The supplement of paper PMC10883282

How the values were obtained:
Test in all cases: relative viability vs DMSO control (72 h) (fraction); higher = more viable cells
[1] = system: SK-ES-1
Summary of the method: (§1)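 Relative viability was measured with ATPLite and expressed as percent growth, averaged across up to triplicate wells. Sarcoma cell lines had been seeded in 384-well plates to reach 80–90% confluence, dosed after 24 h, and incubated 72 h at 37 °C, 5% CO2. All data were rescaled on a scale where 1 is full and 0 is none.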

[2] = system: SW684
Summary of the method: as §1

[3] = system: HS729
Summary of the method: as §1

[4] = system: VA-ES-BJ
Summary of the method: as §1

[5] = system: KHOS-NP
Summary of the method: as §1

[6] = system: A204
Summary of the method: as §1

[7] = system: SW872
Summary of the method: as §1

[8] = system: SK-LMS-1
Summary of the method: as §1

[9] = system: SYO-1
Summary of the method: as §1

[10] = system: MES-SA
Summary of the method: as §1

[11] = system: RD
Summary of the method: as §1

[12] = system: G401
Summary of the method: as §1

COC(=O)N[C@@H](C)CNc1nccc(-c2cn(C(C)C)nc2-c2cc(Cl)cc(NS(C)(=O)=O)c2F)n1 [Encorafenib]
Conditions | relative viability
[1], 0.00017 µM | 0.928
[1], 0.00051 µM | 0.948
[1], 0.00152 µM | 0.972
[1], 0.00457 µM | 0.979
[1], 0.01372 µM | 0.956
[1], 0.04115 µM | 1.02
[1], 0.1235 µM | 0.982
[1], 0.3704 µM | 0.813
[1], 1.111 µM | 0.5375
[1], 3.333 µM | 0.308
[1], 10 µM | 0.394
[2], 0.00017 µM | 0.979
[2], 0.00051 µM | 1
[2], 0.00152 µM | 1.04
[2], 0.00457 µM | 1.04
[2], 0.01372 µM | 1.04
[2], 0.04115 µM | 1.04
[2], 0.1235 µM | 1.05
[2], 0.3704 µM | 1.01
[2], 1.111 µM | 0.943
[2], 3.333 µM | 0.824
[2], 10 µM | 0.834
[3], 0.00017 µM | 1.069
[3], 0.00051 µM | 1.077
[3], 0.00152 µM | 1.07
[3], 0.00457 µM | 0.993
[3], 0.01372 µM | 0.994
[3], 0.04115 µM | 0.995
[3], 0.1235 µM | 1.04
[3], 0.3704 µM | 0.975
[3], 1.111 µM | 0.821
[3], 3.333 µM | 0.69
[3], 10 µM | 0.719
[4], 0.00017 µM | 1.02
[4], 0.00051 µM | 1.04
[4], 0.00152 µM | 1.04
[4], 0.00457 µM | 1.03
[4], 0.01372 µM | 1.03
[4], 0.04115 µM | 1.03
[4], 0.1235 µM | 1
[4], 0.3704 µM | 0.989
[4], 1.111 µM | 0.852
[4], 3.333 µM | 0.637
[4], 10 µM | 0.659
[5], 0.00017 µM | 1.01
[5], 0.00051 µM | 1.01
[5], 0.00152 µM | 1.03
[5], 0.00457 µM | 1.02
[5], 0.01372 µM | 1.01
[5], 0.04115 µM | 0.99
[5], 0.1235 µM | 1.03
[5], 0.3704 µM | 0.984
[5], 1.111 µM | 0.851
[5], 3.333 µM | 0.528
[5], 10 µM | 0.435
[6], 0.00017 µM | 0.99
[6], 0.00051 µM | 0.991
[6], 0.00152 µM | 1
[6], 0.00457 µM | 0.982
[6], 0.01372 µM | 0.973
[6], 0.04115 µM | 0.988
[6], 0.1235 µM | 1
[6], 0.3704 µM | 0.96
[6], 1.111 µM | 0.838
[6], 3.333 µM | 0.602
[6], 10 µM | 0.574
[7], 0.00017 µM | 0.96
[7], 0.00051 µM | 0.952
[7], 0.00152 µM | 0.96
[7], 0.00457 µM | 0.902
[7], 0.01372 µM | 0.729
[7], 0.04115 µM | 0.599
[7], 0.1235 µM | 0.555
[7], 0.3704 µM | 0.524
[7], 1.111 µM | 0.459
[7], 3.333 µM | 0.335
[7], 10 µM | 0.295
[8], 0.00017 µM | 1.01
[8], 0.00051 µM | 1.02
[8], 0.00152 µM | 0.9804
[8], 0.00457 µM | 1.017
[8], 0.01372 µM | 0.953
[8], 0.04115 µM | 0.933
[8], 0.1235 µM | 0.9782
[8], 0.3704 µM | 0.894
[8], 1.111 µM | 0.7389
[8], 3.333 µM | 0.49
[8], 10 µM | 0.441
[9], 0.00017 µM | 0.988
[9], 0.00051 µM | 0.992
[9], 0.00152 µM | 0.972
[9], 0.00457 µM | 0.985
[9], 0.01372 µM | 1.003
[9], 0.04115 µM | 0.997
[9], 0.1235 µM | 1.018
[9], 0.3704 µM | 1.02
[9], 1.111 µM | 0.988
[9], 3.333 µM | 0.877
[9], 10 µM | 0.818
[10], 0.00017 µM | 0.98
[10], 0.00051 µM | 0.944
[10], 0.00152 µM | 1
[10], 0.00457 µM | 0.985
[10], 0.01372 µM | 0.958
[10], 0.04115 µM | 1.01
[10], 0.1235 µM | 0.998
[10], 0.3704 µM | 0.972
[10], 1.111 µM | 0.714
[10], 3.333 µM | 0.461
[10], 10 µM | 0.547
[11], 0.00017 µM | 0.963
[11], 0.00051 µM | 1.01
[11], 0.00152 µM | 1.015
[11], 0.00457 µM | 1
[11], 0.01372 µM | 1.01
[11], 0.04115 µM | 1.01
[11], 0.1235 µM | 1.01
[11], 0.3704 µM | 0.978
[11], 1.111 µM | 0.807
[11], 3.333 µM | 0.447
[11], 10 µM | 0.45
[12], 0.00017 µM | 0.975
[12], 0.00051 µM | 1.01
[12], 0.00152 µM | 0.9948
[12], 0.00457 µM | 1.01
[12], 0.01372 µM | 1.02
[12], 0.04115 µM | 1.06
[12], 0.1235 µM | 1.04
[12], 0.3704 µM | 1.01
[12], 1.111 µM | 0.841
[12], 3.333 µM | 0.653
[12], 10 µM | 0.5834
